Where a name gives a salt, the structure may show the parent alone.
Columns and labels:
[1] = molecular target: T1, Hepatic sodium/bile acid cotransporter (Rattus norvegicus, UniProt P26435); test: (§1) TP_TRANSPORTER: uptake in Xenopus laevis oocytes; format: functional, cell-based; settings: oocyte
T1 sequence (P26435 whole entry): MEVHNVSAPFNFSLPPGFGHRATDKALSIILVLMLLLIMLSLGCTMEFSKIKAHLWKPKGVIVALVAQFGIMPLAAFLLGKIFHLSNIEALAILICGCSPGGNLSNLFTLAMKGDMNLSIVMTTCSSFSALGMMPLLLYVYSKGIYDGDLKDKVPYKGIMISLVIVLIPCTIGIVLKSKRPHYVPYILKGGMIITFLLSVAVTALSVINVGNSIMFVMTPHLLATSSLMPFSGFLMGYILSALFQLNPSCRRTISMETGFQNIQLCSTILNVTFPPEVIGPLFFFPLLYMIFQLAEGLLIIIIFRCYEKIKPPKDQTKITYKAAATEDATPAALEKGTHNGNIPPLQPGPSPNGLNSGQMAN

[2] = molecular target: T2, Solute carrier organic anion transporter family member 1A1 (Rattus norvegicus, UniProt P46720); test: as §1; format: functional, cell-based; settings: oocyte
T2 sequence (P46720 whole entry): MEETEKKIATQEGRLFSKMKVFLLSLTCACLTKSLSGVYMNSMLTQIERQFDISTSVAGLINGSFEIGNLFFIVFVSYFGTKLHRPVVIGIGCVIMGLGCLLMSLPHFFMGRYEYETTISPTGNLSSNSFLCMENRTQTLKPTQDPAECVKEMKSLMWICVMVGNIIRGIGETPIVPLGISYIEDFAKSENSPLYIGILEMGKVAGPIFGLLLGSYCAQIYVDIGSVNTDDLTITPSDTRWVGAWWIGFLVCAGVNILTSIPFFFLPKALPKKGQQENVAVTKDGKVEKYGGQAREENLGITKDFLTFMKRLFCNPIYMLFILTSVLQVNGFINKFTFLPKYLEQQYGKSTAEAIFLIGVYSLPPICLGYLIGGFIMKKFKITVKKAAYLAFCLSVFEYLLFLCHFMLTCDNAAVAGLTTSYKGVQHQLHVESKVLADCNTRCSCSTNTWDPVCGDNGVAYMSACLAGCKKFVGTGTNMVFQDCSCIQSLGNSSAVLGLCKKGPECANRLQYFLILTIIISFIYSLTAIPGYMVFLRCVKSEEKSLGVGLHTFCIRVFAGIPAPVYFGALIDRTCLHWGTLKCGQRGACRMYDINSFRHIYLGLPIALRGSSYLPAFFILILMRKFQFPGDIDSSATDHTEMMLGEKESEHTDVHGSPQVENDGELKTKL

Row | Compound | Activity [1] | Activity [2]
1 | N[C@@H](Cc1cc(I)c(Oc2ccc(OS(=O)(=O)O)c(I)c2)c(I)c1)C(=O)O [TRIIODOTHYRONINE SULFATE] | substrate [+] | substrate [+]
2 | NC(Cc1ccc(Oc2ccc(O)c(I)c2)c(I)c1)C(=O)O (stereo not drawn) [DIIODOTHYRONINE] | substrate [+] | substrate [+]
3 | NS(=O)(=O)O.N[C@@H](Cc1cc(I)c(Oc2cc(I)c(O)c(I)c2)c(I)c1)C(=O)O [THYROXINE SULFAMATE] |  | substrate [+]
4 | N[C@@H](Cc1cc(I)c(Oc2cc(I)c(O)c(I)c2)c(I)c1)C(=O)O [LEVOTHYROXINE] | substrate [+] | substrate [+]
5 | N[C@@H](Cc1cc(I)c(Oc2ccc(O)c(I)c2)c(I)c1)C(=O)O [LIOTHYRONINE] | substrate [+] | substrate [+]
6 | N[C@@H](Cc1ccc(Oc2cc(I)c(O)c(I)c2)c(I)c1)C(=O)O.O=S(=O)(O)O [REVERSE TRIIODOTHYRONINE(RT3) SULFATE] | substrate [+] | substrate [+]
7 | N[C@@H](Cc1ccc(Oc2cc(I)c(O)c(I)c2)c(I)c1)C(=O)O [REVERSE TRIIODOTHYRONINE] | substrate [+] | substrate [+]
8 | NC(Cc1ccc(Oc2ccc(OS(=O)(=O)O)c(I)c2)c(I)c1)C(=O)O (stereo not drawn) [DIIODOTHYRONINE SULFATE] | substrate [+] | substrate [+]
9 | NC(Cc1cc(I)c(Oc2cc(I)c(OS(=O)(=O)O)c(I)c2)c(I)c1)C(=O)O (stereo not drawn) [THYROXINE SULFATE] | substrate [+] | substrate [+]
10 | NS(=O)(=O)O.N[C@@H](Cc1cc(I)c(Oc2ccc(O)c(I)c2)c(I)c1)C(=O)O [TRIIODOTHYRONINE SULFAMATE] |  | substrate [+]
